Data taken from ChEMBL document CHEMBL5465560, “Selectivity Literature for EUbOPEN Chemogenomic Library” (2024).

Tests used:
[1] = biological target: Calcium/calmodulin-dependent protein kinase type II subunit delta (Homo sapiens) (UniProt Q13557); test: Selectivity interaction (KinomeScan (DiscoverX)) EUB0001049a CAMK2D; settings: at 1 µM
[2] = biological target: Phosphatidylinositol 4-phosphate 5-kinase type-1 gamma (Homo sapiens) (UniProt O60331); test: Selectivity interaction (Ambit KINOMEscan and KiNATiv profiling in Jurkat cells) EUB0000090b PIP5K1C; type: cell-based; settings: at 1 µM
Sequence of Phosphatidylinositol 4-phosphate 5-kinase type-1 gamma (Homo sapiens) (O60331 whole entry): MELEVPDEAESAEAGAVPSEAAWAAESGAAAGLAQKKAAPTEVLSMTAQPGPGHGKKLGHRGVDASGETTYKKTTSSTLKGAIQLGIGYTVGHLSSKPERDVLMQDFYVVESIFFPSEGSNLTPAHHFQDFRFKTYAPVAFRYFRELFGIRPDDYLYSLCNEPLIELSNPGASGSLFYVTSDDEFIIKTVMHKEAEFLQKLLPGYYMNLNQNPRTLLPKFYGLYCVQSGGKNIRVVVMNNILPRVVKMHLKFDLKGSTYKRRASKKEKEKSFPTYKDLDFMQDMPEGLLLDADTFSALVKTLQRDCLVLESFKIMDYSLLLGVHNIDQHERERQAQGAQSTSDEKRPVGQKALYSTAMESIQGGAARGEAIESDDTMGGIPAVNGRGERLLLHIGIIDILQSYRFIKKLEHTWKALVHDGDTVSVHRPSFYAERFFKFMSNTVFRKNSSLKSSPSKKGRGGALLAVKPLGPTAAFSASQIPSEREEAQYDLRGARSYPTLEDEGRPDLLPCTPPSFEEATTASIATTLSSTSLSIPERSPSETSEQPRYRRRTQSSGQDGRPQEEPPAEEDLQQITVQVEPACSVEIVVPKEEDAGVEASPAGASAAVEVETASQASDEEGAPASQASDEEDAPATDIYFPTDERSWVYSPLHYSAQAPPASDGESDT

[3] = biological target: T1, Serine/threonine-protein kinase greatwall (Homo sapiens) (UniProt Q96GX5); test: Selectivity interaction (ActivX KiNativ screen (kinase selectivity in THP-1 cell lysates)) EUB0000639a MASTL; type: subcellular; settings: lysate
T1 sequence (whole entry): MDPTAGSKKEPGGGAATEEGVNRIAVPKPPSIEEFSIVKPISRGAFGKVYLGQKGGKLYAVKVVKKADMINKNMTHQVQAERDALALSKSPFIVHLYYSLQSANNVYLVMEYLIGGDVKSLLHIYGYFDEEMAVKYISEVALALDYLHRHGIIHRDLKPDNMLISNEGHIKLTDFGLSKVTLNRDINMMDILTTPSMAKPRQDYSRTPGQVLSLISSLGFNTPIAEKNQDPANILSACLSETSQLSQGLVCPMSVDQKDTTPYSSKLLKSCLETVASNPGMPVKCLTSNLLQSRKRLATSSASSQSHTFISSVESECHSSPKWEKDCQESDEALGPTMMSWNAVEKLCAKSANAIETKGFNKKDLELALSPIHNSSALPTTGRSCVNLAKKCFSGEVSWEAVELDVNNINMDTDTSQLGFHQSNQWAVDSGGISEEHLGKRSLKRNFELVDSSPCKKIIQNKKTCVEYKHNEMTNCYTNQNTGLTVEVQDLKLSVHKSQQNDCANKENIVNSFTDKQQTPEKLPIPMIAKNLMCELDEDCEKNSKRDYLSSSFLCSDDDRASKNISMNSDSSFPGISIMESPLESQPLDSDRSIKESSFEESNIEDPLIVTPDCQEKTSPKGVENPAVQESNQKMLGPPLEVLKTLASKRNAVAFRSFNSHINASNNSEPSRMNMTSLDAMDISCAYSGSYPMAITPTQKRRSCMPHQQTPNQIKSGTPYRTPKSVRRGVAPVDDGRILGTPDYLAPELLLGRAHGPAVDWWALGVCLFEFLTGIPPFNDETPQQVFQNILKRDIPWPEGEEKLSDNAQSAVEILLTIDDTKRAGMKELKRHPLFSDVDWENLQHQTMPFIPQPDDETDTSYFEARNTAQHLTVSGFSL

[4] = biological target: Histone-lysine N-methyltransferase 2C (Homo sapiens) (UniProt Q8NEZ4); test: Selectivity interaction (Transferase panel (protein, RNA, and DNA methyltransferases. and EP300 (acetyltransferase))) EUB0000270b MLL3; settings: at 10 µM
[5] = biological target: Eukaryotic translation initiation factor 2-alpha kinase 3 (Homo sapiens, UniProt Q9NZJ5)
Sequence of Eukaryotic translation initiation factor 2-alpha kinase 3 (Q9NZJ5 whole entry): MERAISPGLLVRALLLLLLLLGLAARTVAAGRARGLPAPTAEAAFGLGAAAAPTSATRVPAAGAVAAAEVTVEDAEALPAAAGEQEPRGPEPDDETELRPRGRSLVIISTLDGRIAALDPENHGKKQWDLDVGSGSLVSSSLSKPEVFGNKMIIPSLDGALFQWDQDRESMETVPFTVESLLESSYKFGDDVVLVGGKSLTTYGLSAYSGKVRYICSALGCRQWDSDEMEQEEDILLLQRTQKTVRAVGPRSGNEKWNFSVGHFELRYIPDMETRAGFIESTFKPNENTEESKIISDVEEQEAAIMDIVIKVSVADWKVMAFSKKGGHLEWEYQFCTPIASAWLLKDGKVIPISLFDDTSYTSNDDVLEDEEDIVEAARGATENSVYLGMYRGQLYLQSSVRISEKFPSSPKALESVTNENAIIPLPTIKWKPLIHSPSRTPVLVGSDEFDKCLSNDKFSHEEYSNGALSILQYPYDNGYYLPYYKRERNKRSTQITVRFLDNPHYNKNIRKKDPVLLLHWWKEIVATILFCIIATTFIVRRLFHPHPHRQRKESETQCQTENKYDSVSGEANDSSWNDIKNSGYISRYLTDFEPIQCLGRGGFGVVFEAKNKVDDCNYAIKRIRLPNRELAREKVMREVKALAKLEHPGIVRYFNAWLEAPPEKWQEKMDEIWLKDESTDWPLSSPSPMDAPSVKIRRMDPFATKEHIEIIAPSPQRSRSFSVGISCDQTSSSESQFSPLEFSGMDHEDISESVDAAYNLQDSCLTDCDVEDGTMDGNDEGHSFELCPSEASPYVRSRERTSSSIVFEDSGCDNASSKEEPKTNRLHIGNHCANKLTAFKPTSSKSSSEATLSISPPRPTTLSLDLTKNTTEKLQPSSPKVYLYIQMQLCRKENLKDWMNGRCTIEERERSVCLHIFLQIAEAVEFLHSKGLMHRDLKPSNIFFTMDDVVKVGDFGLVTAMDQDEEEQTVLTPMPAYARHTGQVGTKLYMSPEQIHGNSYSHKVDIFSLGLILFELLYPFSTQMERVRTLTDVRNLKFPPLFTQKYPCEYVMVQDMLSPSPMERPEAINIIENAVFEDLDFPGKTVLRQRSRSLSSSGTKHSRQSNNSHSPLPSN

[6] = biological target: CDK3/Cyclin E (Homo sapiens) (UniProt P24864+Q00526); test: Selectivity interaction (LanthaScreen Eu Kinase Binding Assay) EUB0001632a CDK3; type: protein-complex assay; settings: at 10 µM
Sequence of CDK3/Cyclin E (Homo sapiens) (P24864 whole entry, looked up): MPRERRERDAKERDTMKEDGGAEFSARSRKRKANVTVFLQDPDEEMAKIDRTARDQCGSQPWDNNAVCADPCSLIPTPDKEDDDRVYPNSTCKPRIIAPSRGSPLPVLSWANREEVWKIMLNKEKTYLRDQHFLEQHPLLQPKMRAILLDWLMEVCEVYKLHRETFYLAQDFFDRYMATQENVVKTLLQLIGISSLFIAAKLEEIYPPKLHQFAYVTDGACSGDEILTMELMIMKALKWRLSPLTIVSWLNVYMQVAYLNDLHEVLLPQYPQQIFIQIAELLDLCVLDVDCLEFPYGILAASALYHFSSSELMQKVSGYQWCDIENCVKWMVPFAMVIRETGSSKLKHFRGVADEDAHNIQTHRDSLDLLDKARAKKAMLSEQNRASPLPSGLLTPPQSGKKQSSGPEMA
Sequence of CDK3/Cyclin E (Homo sapiens) (Q00526 whole entry, looked up): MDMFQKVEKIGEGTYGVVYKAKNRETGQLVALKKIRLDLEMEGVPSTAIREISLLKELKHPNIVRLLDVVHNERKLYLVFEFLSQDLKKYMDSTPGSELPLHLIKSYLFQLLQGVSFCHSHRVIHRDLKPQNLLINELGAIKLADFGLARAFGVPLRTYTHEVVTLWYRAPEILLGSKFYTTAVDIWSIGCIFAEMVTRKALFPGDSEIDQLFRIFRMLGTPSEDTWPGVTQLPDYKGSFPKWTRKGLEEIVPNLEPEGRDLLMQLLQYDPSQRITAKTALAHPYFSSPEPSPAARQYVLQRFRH

[7] = biological target: Myosin-IIIa (Homo sapiens) (UniProt Q8NEV4); test: Selectivity interaction (KinomeScan (DiscoverX)) EUB0000695a MYO3A; settings: at 100 nM
[8] = biological target: T2, Receptor-interacting serine/threonine-protein kinase 1 (Homo sapiens) (UniProt Q13546); test: Selectivity interaction (KinomeScan (DiscoverX)) EUB0000695a RIPK1; settings: at 100 nM
T2 sequence (whole entry): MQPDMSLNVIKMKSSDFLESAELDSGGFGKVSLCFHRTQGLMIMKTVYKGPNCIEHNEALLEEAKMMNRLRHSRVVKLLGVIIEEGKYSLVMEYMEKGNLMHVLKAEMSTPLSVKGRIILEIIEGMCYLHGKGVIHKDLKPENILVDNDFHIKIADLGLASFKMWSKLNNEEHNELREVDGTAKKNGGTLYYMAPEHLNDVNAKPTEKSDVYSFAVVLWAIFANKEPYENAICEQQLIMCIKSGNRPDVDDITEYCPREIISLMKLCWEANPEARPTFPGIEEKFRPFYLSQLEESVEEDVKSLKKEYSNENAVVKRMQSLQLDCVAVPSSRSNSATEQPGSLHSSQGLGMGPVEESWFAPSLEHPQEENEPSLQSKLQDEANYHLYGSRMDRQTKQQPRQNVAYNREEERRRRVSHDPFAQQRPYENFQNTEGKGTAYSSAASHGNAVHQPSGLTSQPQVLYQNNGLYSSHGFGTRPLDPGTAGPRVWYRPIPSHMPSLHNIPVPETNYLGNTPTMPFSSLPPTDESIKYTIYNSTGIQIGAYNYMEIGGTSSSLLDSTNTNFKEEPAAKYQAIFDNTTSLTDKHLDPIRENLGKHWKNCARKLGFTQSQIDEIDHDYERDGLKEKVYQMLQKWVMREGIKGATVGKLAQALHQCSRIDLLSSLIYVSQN

[9] = biological target: Ribosomal protein S6 kinase alpha-5 (Homo sapiens) (UniProt O75582); settings: at 10 µM
Sequence of Ribosomal protein S6 kinase alpha-5 (Homo sapiens) (O75582 whole entry, looked up): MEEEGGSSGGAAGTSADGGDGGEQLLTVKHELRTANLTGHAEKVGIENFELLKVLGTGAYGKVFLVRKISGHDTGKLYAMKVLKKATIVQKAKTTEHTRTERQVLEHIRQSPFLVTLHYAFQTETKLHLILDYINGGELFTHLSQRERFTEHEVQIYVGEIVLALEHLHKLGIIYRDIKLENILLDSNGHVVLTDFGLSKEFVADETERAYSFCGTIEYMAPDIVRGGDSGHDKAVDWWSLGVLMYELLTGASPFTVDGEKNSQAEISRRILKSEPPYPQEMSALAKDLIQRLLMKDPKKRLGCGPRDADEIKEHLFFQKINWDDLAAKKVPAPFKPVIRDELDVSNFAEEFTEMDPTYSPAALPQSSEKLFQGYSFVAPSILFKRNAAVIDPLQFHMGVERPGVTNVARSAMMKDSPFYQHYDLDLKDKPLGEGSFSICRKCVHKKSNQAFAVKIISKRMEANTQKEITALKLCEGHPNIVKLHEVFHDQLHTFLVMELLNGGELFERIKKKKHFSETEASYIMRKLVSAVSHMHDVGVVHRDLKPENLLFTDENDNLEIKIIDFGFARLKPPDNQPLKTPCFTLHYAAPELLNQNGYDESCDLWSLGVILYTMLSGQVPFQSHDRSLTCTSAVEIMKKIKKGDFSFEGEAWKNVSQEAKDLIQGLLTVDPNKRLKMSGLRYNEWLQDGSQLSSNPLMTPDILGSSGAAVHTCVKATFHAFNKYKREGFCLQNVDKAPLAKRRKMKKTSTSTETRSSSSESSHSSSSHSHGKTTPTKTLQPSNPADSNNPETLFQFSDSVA

[10] = biological target: MAP/microtubule affinity-regulating kinase 3 (Homo sapiens) (UniProt P27448); test: Selectivity interaction (KinomeScan (DiscoverX)) EUB0000092b MARK3; settings: at 10 µM
[11] = biological target: T3, Phosphorylase b kinase gamma catalytic chain, liver/testis isoform (Homo sapiens) (UniProt P15735); test: Selectivity interaction (KinomeScan (DiscoverX)) EUB0000618a PHKG2; settings: at 10 µM
T3 sequence (whole entry): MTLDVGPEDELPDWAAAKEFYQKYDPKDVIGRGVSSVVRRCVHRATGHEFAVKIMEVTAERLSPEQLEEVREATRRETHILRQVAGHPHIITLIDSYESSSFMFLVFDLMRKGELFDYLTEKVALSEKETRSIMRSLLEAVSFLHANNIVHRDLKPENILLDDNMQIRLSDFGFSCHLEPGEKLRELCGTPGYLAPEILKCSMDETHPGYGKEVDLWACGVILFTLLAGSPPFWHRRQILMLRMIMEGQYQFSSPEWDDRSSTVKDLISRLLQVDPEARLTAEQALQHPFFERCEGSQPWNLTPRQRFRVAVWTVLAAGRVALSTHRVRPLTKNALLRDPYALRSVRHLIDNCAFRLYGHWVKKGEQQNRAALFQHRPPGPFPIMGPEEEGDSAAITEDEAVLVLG

[12] = biological target: Serine/threonine-protein kinase pim-1 (Homo sapiens, UniProt P11309); test: Selectivity interaction (KinomeScan (DiscoverX)) EUB0000607a PIM1; settings: at 10 µM
Sequence of Serine/threonine-protein kinase pim-1 (P11309 whole entry, looked up): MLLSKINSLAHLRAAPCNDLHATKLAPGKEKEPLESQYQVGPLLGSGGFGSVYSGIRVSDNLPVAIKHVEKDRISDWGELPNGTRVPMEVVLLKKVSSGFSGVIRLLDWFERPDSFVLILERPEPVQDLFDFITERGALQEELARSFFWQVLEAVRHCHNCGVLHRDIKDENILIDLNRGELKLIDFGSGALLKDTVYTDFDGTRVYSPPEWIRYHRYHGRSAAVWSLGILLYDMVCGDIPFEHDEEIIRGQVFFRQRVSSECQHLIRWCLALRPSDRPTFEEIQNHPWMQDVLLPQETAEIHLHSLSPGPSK

[13] = biological target: Beta-2 adrenergic receptor (Homo sapiens, UniProt P07550); test: Selectivity interaction (Panel of kinases, GPCRs, ion channels and transporters (enzymatic assay)) EUB0000223bCl ADRB2
Sequence of Beta-2 adrenergic receptor (P07550 whole entry, looked up): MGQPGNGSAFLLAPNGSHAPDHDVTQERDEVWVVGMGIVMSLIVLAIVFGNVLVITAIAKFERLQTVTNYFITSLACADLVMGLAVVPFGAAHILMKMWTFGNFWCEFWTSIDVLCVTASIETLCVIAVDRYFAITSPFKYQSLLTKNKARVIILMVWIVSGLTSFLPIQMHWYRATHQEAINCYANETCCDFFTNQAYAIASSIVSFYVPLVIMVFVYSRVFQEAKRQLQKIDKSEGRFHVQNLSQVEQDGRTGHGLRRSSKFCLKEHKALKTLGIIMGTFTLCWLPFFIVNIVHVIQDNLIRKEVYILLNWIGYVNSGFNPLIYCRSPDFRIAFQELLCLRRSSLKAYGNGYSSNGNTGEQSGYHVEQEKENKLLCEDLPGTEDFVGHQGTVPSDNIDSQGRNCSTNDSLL

Sequence of Calcium/calmodulin-dependent protein kinase type II subunit delta (Homo sapiens) (Q13557 whole entry): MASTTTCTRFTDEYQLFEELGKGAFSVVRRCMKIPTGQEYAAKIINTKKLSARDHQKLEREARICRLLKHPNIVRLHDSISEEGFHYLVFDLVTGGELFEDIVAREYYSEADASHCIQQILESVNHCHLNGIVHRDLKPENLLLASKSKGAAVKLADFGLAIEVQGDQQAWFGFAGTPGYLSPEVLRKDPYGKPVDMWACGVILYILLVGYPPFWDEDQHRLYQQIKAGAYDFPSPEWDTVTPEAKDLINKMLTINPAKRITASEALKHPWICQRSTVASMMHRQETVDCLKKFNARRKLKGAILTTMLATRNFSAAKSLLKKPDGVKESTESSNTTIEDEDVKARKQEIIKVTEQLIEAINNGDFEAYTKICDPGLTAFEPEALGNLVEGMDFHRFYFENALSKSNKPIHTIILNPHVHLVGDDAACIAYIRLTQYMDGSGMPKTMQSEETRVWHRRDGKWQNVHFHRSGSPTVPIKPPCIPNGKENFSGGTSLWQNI

Question: COc1cc(Nc2nc(C)cc(-c3cnn4nc(OC)ccc34)n2)cc(C(F)(F)F)c1 was tested. Which % of control [1] did it give?
Answer: Its % of control is 100%.

Question: Which % of control [2] does the source give for CN(C)C/C=C/C(=O)Nc1ccc(C(=O)N2CCCC(Nc3ncc(Cl)c(-c4c[nH]c5ccccc45)n3)C2)cc1 (configuration not stated) here?
Answer: Its % of control is 100%.

Question: Which % of inhibition ([3]; at 0.01 µM) does the source give for CC[C@@H]1[C@H](F)C(=O)N[C@@H]1COc1nccc2cc(C(N)=O)c(OC)cc12 [ZIMLOVISERTIB] here?
Answer: Its % of inhibition is -10.8%.

Question: And the % of inhibition ([3]; at 0.04 µM)?
Answer: Its % of inhibition is 0.7%.

Question: And the % of inhibition ([3]; at 0.2 µM)?
Answer: The % of inhibition was 12.7%.

Question: And the % of inhibition ([3]; at 1 µM)?
Answer: The % of inhibition was 37.8%.

Question: What about the % of inhibition ([3]; at 5 µM) of the same compound?
Answer: Its % of inhibition is 78.5%.

Question: Cc1cc(CN)cc(C)c1-c1ncn(C)c1-c1cncn1C was tested. Which % activity [4] did it give?
Answer: The % activity was > 80%.

Question: With CCc1cccc(CC)c1NC(=O)c1nn(C)c2c1CCc1cnc(Nc3ccc(C(=O)NC4CCN(C)CC4)cc3OC(F)(F)F)nc1-2 as the compound, how does the IC50 [5] read?
Answer: The IC50 was > 10 µM.

Question: Which % of inhibition [6] does the source give for Cn1cc(-n2cnc3c(NCc4nc5cc(Cl)c(Cl)cc5[nH]4)nc(N4CCOCC4)nc32)cn1 here?
Answer: Its % of inhibition is -151%.

Question: Cc1cc(F)c(C(=O)Nc2cccc(-c3nncn3C(C)C)n2)cc1-n1cnc(C2CC2)c1 was tested. Which % of control [7] did it give?
Answer: Its % of control is 100%.

Question: And the % of control [8]?
Answer: Its % of control is 89%.

Question: For CCN(CC)CCCCNc1ncc2cc(-c3cc(OC)cc(OC)c3)c(NC(=O)NC(C)(C)C)nc2n1, which % of control [9] is on record?
Answer: Its % of control is 100%.

Question: How did the % of control [10] turn out when CCC(=O)N1CCN(c2ccc(-n3c(=O)ccc4cnc5ccc(-c6cnc7ccccc7c6)cc5c43)cc2C(F)(F)F)CC1 was run?
Answer: The % of control was 100%.

Question: For O[C@H]1CC[C@H](Nc2ncc3nc(Nc4c(F)cc(F)cc4F)n([C@H]4CCOC4)c3n2)CC1, which % of control [11] is on record?
Answer: Its % of control is 99%.

Question: With CNC(=O)Nc1ccc(-c2nc(N3CC4CCC(C3)O4)c3cnn(C4CCC5(CC4)OCCO5)c3n2)cc1 as the compound, how does the % of control [12] read?
Answer: Its % of control is 100%.

Question: For COc1cc(C(=O)N2CC[C@@H](O)[C@@H](N)C2)cc2nc(-c3cc4ccccc4n3CC3CC3)n(C)c12, which pXC50 [13] is on record?
Answer: Its pXC50 is < 4.5 M.
